From ChEMBL document CHEMBL1136474, “4-(4-alkylpiperazin-1-yl)phenyl group: a novel class of basic side chains for selective estrogen receptor modulators” (2003)

Tests used:
[1] = biological target: Estrogen receptor (Homo sapiens) (UniProt Q92731+P03372); assay: Binding affinity towards estrogen receptor (ER) using [3H]17-beta-estradiol as radioligand in human breast cancer MCF-7 cells relative to compound 1; format: cell-based; settings: MCF7
Rattus norvegicus = assay: Plasma cholesterol lowering effect was determined in Sprague-Dawley rats at a dose of 1 mg/kg/day for 4 days; format: functional
[2] = biological target: T1, Estrogen receptor (Rattus norvegicus) (UniProt P06211+Q62986); settings: Uterus
Description: Uterotrophic effect as uterine weight gain in rats at 1 mg/kg/day oral dose for 4 days

[3] = biological target: T1, Estrogen receptor (Rattus norvegicus); assay: Uterotrophic effect as uterine weight gain in rats at 10 mg/kg/day oral dose for 4 days; format: functional, organism-based; settings: Uterus

Compound	relative binding affinity (RBA) [1]	Decrease (Rattus norvegicus)	Uterotrophic effect [2]	Increase [3]
Cc1cc(C2=CC3(CCc4cc(O)ccc43)c3ccc(O)cc32)ccc1OCCN1CCCCC1 (stereo unspecified)	122	4.5%	–	–
Oc1ccc2c(c1)CCC21C=C(c2ccc(OCCN3CCCCC3)c(F)c2)c2cc(O)ccc21 (stereo unspecified)	247	16%	–	–
CCCN1CCN(c2ccc(C3=CC4(CCc5cc(O)ccc54)c4ccc(O)cc43)cc2)CC1 (stereo unspecified)	186	55%	223	–
CN1CCN(c2ccc(C3=CC4(CCc5cc(O)ccc54)c4ccc(O)cc43)cc2)CC1 (stereo unspecified)	207	–	–	–
Oc1ccc2c(c1)CCC21C=C(c2ccc(N3CCCCC3)cc2)c2cc(O)ccc21 (stereo unspecified)	125	51%	139	26.5%
CN(C)CCOc1ccc(C2=CC3(CCc4cc(O)ccc43)c3ccc(O)cc32)cc1 (stereo unspecified)	85	6%	–	–
CCN(CC)CCOc1ccc(C2=CC3(CCc4cc(O)ccc43)c3ccc(O)cc32)cc1 (stereo unspecified)	153	18%	–	–
Cc1cc(C2=CC3(CCc4cc(O)ccc43)c3ccc(O)cc32)cc(C)c1OCCN1CCCCC1 (stereo unspecified)	22	-9.1%	–	–
CC(C)N1CCN(c2ccc(C3=CC4(CCc5cc(O)ccc54)c4ccc(O)cc43)cc2)CC1 (stereo unspecified)	103	21%	–	–
Oc1ccc2c(c1)CCC21C=C(c2ccc(OCCN3CCCCC3)cc2)c2cc(O)ccc21 (stereo unspecified)	–	44%	–	–
Cc1cc(OCCN2CCCCC2)ccc1C1=CC2(CCc3cc(O)ccc32)c2ccc(O)cc21 (stereo unspecified)	70	-12%	–	–
Oc1ccc2c(c1)CCC21C=C(c2ccc(CCCN3CCCCC3)cc2)c2cc(O)ccc21 (stereo unspecified)	956	6%	–	–
Oc1ccc2c(c1)CCC21C=C(c2ccc(OCCN3CCCC3)cc2)c2cc(O)ccc21 (stereo unspecified)	118	17%	–	–
Oc1ccc2c(c1)CCC21C=C(c2ccc(OCCCN3CCCCC3)cc2)c2cc(O)ccc21 (stereo unspecified)	460	8.5%	–	–
CCC1CCCN(c2ccc(C3=CC4(CCc5cc(O)ccc54)c4ccc(O)cc43)cc2)CC1 (stereo unspecified)	387	32%	114	–
Oc1ccc2c(c1)CCC21C=C(c2cccc(OCCN3CCCCC3)c2)c2cc(O)ccc21 (stereo unspecified)	47	–	–	–
CCN1CCN(c2ccc(C3=CC4(CCc5cc(O)ccc54)c4ccc(O)cc43)cc2)CC1 (stereo unspecified)	181	52%	208	–
CC(C)CN1CCN(c2ccc(C3=CC4(CCc5cc(O)ccc54)c4ccc(O)cc43)cc2)CC1 (stereo unspecified)	42	87%	185	–
CC1CCN(CCOc2ccc(C3=CC4(CCc5cc(O)ccc54)c4ccc(O)cc43)cc2)CC1 (stereo unspecified)	428	18%	–	–
